# Test results from patent US8633168B2, “Inhibitors of S-adenosyl-L-methionine decarboxylase” (Genzyme Corporation, priority 2007, dated 2014).
# Where two headings read alike, the source gives them in different places.
# Experiments:
# CYP2D6 = CYP2D6 (Homo sapiens, UniProt P10635); test: Cytochrome P450 inhibition, CYP2D6
# Text: This cytochrome P450 high throughput IC50 inhibition assay is utilized for screening potential inhibitors of the 5 major human CYP isozyme catalytic activities (CYP3A4, 2D6, 2C9, 2C19, and 1A2).
# T. b. brucei = test: Cell-based screening against T. b. brucei; set-up: species or system Trypanosoma brucei brucei; conditions: for IC50: Screening Data, two values per compound
# Method: The bloodstream form trypomastigotes of the three strains are maintained according to standard protocols established at STI.
# Drug sensitivity assays are performed in sterile 96-well microtiter plates, with or without serial drug dilutions. The highest concentration for the test compounds is 90 μg/ml. Each drug is tested in duplicate. After 72 hours of incubation the plates are inspected microscopically to assure growth of the controls to determine the minimum inhibitory concentration (MIC), i.e., the lowest drug concentration at which no trypanosomes with normal morphology and motility can be seen compared to control wells. Cell viability is measured by Alamar blue staining and IC50 values are calculated.
# Active compounds (IC50<0.2 μg/ml) are tested against the Trypanosoma brucei gambiense STIB 930 and the multi-drug resistant T. b. brucei STIB 950 following the same protocol as described above.
# This example provides data relating to the biological screening results. MDL 73811 and selected new compounds 1-7 were tested against a variety of cell-based organisms and enzymes and the IC50 measured. In vitro ADME profiles were also obtained. Solubility, permeability, microsomal/hepatocyte stability, cychrome P450 inhibition and plasma protein binding characteristics were probed for each of the compounds. The methodology for these tests are described in previous paragraphs. The results are summarized in the following 2 charts.
# [1] = Hepatocyte stability, rat; format: in vitro ADME; conditions: for Hepatocyte stability (CL) rat: Table 2; for CLint scaled: hepatocytes, Example 12 chart
# Method: (§1) Liver microsomes and hepatocytes represent an in vitro surrogate for assessing the phase I/II metabolic stability of new discovery leads. Following the incubation of the compounds with microsomes or hepatocytes of different species (e.g., human, rat, dog, monkey, mouse), the samples were transferred to 96 well plates for quantitation using LC/MS/MS. The % of compound remaining was measured and used to calculate clearance and % hepatic blood flow.
# Schistosomes adult = test: Screening against Schistosomes, adult; format: cell-based; conditions: Screening Data
# [2] = Microsomal stability, human; format: in vitro ADME; conditions: for Microsomal stability (CL) human: Table 2; for CLint scaled: Example 12 chart
# Method: as §1
# T. brucei SAM DC = target: T1, T. brucei SAM DC (Trypanosoma brucei brucei, UniProt P50244); test: SAMDC enzyme inhibition assay (14CO2 release from 14C-AdoMet); format: biochemical; conditions: Table 1; read-out: kinact/Ki^app against SAM DC enzyme by SW (converted)
# T1 construct: made in house
# T1 sequence (P50244 86-370 limits assumed): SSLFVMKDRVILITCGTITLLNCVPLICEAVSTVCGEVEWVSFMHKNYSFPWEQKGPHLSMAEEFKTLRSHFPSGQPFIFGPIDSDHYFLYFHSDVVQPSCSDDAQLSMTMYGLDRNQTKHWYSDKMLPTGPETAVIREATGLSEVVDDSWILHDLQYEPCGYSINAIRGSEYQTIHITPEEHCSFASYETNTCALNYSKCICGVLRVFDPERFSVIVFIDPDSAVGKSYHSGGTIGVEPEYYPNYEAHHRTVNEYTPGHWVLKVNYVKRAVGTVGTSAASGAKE
# Method: Steady state kinetics were performed as described (Kinch, L. N., J. R. Scott, B. Ullman, and M. A. Phillips. “Cloning and Kinetic Characterization of the Trypanosoma Cruzi S-Adenosylmethionine Decarboxylase.” Mol Biochem Parasitol 101, no. 1-2 (1999): 1-11. Beswick, T. C., E. K. Willert, and M. A. Phillips. “Mechanisms of Allosteric Regulation of Trypanosoma Cruzi S-Adenosylmethionine Decarboxylase.” Biochemistry 45, no. 25 (2006): 7797-807.). This assay measures the amount of ^14CO2 elaborated by enzymatic cleavage of ^14C-AdoMet. Reactions were carried out in assay buffer (100 mM Hepes pH 8.0, 50 mM NaCl, and 1 mM DTT) using the AdoMetDC/AdoMetDC Prozyme complex at ^14C-AdoMet concentrations of 10-160 μM with saturating putrescine (5 mM) (Willert E K, Phillips M A, 2007. “Allosteric regulation of an essential trypanosome polyamine biosynthetic enzyme by a catalytically dead homolog”. Proc Natl Acad Sci USA 104: 8275-8280). The reaction components were added to a test tube on ice to a total final volume of 100 μl. The reaction was initiated by the addition of enzyme (1-4 μM for T. brucei SAM DC), and a piece of filter paper soaked in saturated barium hydroxide was hung on the side of the test tube, which was then capped with a rubber stopper. Reactions were incubated at 37° C. in a water bath for 5-40 minutes. The assay was stopped by the addition of 200 μl 6 M HCl. The quenched reaction was kept at 37° C. for at least 30 minutes to allow for evolution of the CO2 from the solution. The filter paper was then added to 5 ml of scintillation fluid and counted. Test compounds were assessed over a range of 4 concentrations. Kinetic and regression analysis were performed using GraphPad Prism™.
# Purified, recombinant T. brucei SAM-decarboxylase and its prozyme are prepared and assayed in the laboratory of Dr. Phillips according to procedures from that lab. Kinch L N, Scott J R, Ullman B, Phillips M A, “Cloning and kinetic characterization of the Trypanosoma cruzi S-adenosylmethionine decarboxylase,” Mol Biochem Parasitol 101: 1-11. Willert E K, Fitzpatrick R, Phillips M A, 2007 (1999). Briefly, the assay employs ^14C-labelled S-adenosyl methionine (^14C-AdoMet). Reactions are carried out in buffer (100 mM Hepes pH 8.0, 50 mM NaCl, and 5 mM DTT) at ^14C-AdoMet concentrations of 10-160 μM with saturating putrescine (5 mM). The reaction components are added to a test tube on ice to a total final volume of 100 μl. The reaction is initiated by the addition of enzyme (1-4 μM for T. brucei SAM DC), and a piece of filter paper soaked in saturated barium hydroxide is hung on the side of the test tube, which is then capped with a rubber stopper. Reactions are incubated at 37° C. in a water bath for 5-40 minutes. The assay is stopped by the addition of 200 μl 6 M HCl. The quenched reaction is kept at 37° C. for at least 30 minutes to allow for evolution of the CO2 from the solution. The filter paper is then added to 5 ml of scintillation fluid and counted. Test compounds were assessed over a range of 4 concentrations. Kinetic and regression analysis are performed using GraphPad Prism.™ Results of this test are exemplified in FIG. 4.
# [3] = read-out: CYP IC50 2D6, Example 12 chart
# Sequence of CYP2D6 (P10635 whole entry): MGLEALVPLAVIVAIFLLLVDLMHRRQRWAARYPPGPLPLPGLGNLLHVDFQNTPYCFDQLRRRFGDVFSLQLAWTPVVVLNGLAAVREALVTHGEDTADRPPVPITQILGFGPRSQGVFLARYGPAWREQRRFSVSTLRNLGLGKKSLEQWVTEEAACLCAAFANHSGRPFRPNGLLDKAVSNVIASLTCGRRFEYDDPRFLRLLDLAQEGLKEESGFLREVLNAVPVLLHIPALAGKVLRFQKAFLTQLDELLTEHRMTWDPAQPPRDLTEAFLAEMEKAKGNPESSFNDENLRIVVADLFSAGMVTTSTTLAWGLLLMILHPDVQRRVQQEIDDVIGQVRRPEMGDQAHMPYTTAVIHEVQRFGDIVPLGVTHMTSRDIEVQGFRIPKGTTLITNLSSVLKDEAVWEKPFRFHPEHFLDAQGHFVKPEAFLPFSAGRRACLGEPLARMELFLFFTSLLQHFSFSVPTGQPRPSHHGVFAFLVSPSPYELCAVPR
Compound,"IC50 (CYP2D6; human, probe fluorometric substrates (not named)) [µM]",Hepatocyte stability (CL) rat [1] [L/h/kg],CLint scaled [1] [L/h/kg],IC50 (Schistosomes adult) [µM],Microsomal stability (CL) human [2] [L/h/kg],CLint scaled ([2]; liver microsomes) [L/h/kg],kinact/KI (T. brucei SAM DC) [M⁻¹ s⁻¹],IC50 (T. b. brucei; Trypanosoma brucei) [µM],IC50 (CYP2D6) [µM],IC50 (CYP2D6; [3]) [µM],"potency against T. b. brucei, fold greater than that of MDL73811 (T. b. brucei; vs MDL73811) [fold]",IC50 (T. b. brucei) [µM],CLint scaled ([2]; microsomes) [L/h/kg]
CN(C/C=C\CN)C[C@H]1O[C@@H](n2cnc3c(N)ncnc32)[C@H](F)[C@@H]1O (stereo in doubt) [Compound 1],> 5,<0.66,< 0.21,> 10,<0.252,< 0.27,3200,> 14,–,–,–,–,–
Cc1nc2c(N)ncnc2n1[C@@H]1O[C@H](CN(C)C/C=C\CN)[C@@H](O)[C@H]1O (stereo in doubt) [Compound 4],–,<0.66,< 0.21,> 10,<0.252,< 0.27,130000,0.027,> 5,> 5,10,–,–
"CN(C/C=C\CN)CC1OC(n2cnc3c(N)ncnc32)C(O)C1O (centres unmarked) [MDL-73811, reference compound]",–,<0.66,< 0.21,> 10,<0.252,–,24900,0.171,> 5,> 5,–,0.257,< 0.27

# Second part, led by results:
"IC50 (CYP2D6; human, probe fluorometric substrates (not named)) [µM]",Hepatocyte stability (CL) rat [1] [L/h/kg],CLint scaled [1] [L/h/kg],IC50 (Schistosomes adult) [µM],Microsomal stability (CL) human [2] [L/h/kg],CLint scaled ([2]; liver microsomes) [L/h/kg],kinact/KI (T. brucei SAM DC) [M⁻¹ s⁻¹],Compound,IC50 (T. b. brucei; Trypanosoma brucei) [µM],IC50 (CYP2D6) [µM],IC50 (CYP2D6; [3]) [µM],"potency against T. b. brucei, fold greater than that of MDL73811 (T. b. brucei; vs MDL73811) [fold]",IC50 (T. b. brucei) [µM],CLint scaled ([2]; microsomes) [L/h/kg]
–,<0.66,< 0.21,> 10,<0.252,< 0.27,32700,CN(C/C=C\CN)C[C@H]1O[C@@H](n2cnc3c(N)ncnc32)[C@@H](F)[C@@H]1O [Compound 2],> 14,> 5,> 5,–,–,–
–,<0.66,< 0.21,> 10,<0.252,< 0.27,300,CN(C/C=C\CN)C[C@H]1O[C@@H](n2cnc3c(N)nc(Cl)nc32)[C@H](O)[C@@H]1O [Compound 3],8.57,> 5,> 5,–,5.96,–
